Results as given in article PMC7680421 (Cell chemical biology, 2020).
Each block holds one molecule with its values, some of them ahead of it.

Assays:
[1] = Plasma kinetics: half-life of radiolabeled cGAMP in mouse plasma; format: in vitro ADME; conditions: 5 μM cGAMP, 37 °C
[2] = Plasma kinetics: half-life of radiolabeled cGAMP in human plasma; format: in vitro ADME; conditions: based on 5 healthy donors, 5 μM cGAMP, 37 °C
Mouse ENPP1 [3] = target: T1, Mouse ENPP1 (Mus musculus, UniProt P06802); conditions: substrate cGAMP, pH 7.4
T1 sequence (P06802 92-905 isoform P06802-2): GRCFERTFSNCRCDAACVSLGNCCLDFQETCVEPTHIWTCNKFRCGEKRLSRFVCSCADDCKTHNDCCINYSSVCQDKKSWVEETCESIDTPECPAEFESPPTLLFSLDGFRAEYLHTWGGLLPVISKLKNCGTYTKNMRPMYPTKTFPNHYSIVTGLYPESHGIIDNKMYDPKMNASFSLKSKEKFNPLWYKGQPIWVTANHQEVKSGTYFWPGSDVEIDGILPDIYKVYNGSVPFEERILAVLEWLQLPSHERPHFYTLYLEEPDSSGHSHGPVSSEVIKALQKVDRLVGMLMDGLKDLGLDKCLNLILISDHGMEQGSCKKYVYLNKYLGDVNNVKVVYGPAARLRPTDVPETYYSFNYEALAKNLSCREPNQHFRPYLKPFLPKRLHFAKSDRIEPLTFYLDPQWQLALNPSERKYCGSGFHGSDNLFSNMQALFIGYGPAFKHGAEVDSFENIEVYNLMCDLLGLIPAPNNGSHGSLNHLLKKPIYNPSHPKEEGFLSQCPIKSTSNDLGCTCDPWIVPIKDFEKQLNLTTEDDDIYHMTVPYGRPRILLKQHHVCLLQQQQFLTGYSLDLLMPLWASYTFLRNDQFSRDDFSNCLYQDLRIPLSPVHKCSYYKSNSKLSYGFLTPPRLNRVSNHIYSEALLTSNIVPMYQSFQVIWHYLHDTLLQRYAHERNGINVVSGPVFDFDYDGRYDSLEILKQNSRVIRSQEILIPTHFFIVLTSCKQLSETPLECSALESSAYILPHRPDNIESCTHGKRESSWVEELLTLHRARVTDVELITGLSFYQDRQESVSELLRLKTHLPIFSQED

hERG channel = hERG channel (Homo sapiens, UniProt Q12809); test: hERG channel inhibition assay; conditions: at 25 μM
Chain of hERG channel (Q12809 whole entry): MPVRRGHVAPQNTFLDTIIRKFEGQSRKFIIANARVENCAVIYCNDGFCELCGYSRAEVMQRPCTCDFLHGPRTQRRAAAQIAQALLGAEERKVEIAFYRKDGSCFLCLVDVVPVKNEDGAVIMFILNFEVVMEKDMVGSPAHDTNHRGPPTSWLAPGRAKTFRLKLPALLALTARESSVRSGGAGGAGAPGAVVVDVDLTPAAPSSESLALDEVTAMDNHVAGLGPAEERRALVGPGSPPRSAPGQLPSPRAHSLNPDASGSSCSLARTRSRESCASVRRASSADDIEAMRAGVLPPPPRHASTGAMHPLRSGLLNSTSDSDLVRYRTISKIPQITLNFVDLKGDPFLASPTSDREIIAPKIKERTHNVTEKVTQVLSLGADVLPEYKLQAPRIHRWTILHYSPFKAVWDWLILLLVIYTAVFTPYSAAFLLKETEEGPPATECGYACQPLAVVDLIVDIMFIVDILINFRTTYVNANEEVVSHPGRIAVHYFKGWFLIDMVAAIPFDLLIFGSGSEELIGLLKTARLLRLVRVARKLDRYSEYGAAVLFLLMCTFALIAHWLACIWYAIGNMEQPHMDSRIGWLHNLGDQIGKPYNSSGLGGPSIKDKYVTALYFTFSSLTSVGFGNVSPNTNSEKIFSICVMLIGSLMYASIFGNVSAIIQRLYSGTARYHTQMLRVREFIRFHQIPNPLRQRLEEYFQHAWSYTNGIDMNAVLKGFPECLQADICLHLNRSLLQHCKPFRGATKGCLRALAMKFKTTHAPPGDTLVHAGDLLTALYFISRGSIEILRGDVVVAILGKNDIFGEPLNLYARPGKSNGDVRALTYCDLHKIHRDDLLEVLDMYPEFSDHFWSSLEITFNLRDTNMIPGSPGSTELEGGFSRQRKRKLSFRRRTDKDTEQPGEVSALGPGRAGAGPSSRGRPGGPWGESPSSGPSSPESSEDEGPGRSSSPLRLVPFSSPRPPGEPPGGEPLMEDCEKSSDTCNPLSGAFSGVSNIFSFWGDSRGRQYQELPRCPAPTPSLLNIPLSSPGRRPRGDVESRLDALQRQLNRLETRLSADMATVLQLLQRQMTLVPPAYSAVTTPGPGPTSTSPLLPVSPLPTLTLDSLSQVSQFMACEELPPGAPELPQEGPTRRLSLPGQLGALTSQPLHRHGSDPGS

ENPP1 in mouse plasma = target: T2, ENPP1 in mouse plasma (Mus musculus, UniProt P06802); test: Inhibition of cGAMP degradation in mouse plasma; format: biochemical; conditions: 50 mM EDTA, 37 °C
T2 sequence (P06802 85-906 limits assumed): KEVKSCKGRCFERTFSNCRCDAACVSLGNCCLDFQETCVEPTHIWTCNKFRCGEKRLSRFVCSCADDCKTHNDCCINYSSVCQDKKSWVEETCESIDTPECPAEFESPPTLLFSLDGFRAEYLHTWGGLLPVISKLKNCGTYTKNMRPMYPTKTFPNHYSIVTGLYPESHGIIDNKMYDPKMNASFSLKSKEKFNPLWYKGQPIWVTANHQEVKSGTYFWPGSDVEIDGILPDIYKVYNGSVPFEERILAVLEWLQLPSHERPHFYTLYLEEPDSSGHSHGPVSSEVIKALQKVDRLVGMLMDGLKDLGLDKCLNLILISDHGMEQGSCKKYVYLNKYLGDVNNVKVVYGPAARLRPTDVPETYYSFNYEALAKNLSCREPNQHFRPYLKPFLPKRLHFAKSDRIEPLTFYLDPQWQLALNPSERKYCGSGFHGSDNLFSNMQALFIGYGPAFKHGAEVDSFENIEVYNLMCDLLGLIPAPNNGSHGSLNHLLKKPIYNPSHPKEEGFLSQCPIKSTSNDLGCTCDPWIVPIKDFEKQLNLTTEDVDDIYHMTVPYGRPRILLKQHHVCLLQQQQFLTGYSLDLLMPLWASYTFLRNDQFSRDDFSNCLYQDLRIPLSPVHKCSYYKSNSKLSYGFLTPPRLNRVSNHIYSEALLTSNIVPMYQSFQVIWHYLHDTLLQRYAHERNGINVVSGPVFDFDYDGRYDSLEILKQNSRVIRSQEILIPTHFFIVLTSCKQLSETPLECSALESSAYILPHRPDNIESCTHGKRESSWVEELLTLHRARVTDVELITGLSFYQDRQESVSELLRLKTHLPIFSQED

ENPP1 in human plasma = ENPP1 in human plasma (Homo sapiens, UniProt P22413); conditions: 50 mM EDTA, 37 °C
Chain of ENPP1 in human plasma (P22413 103-925 limits assumed): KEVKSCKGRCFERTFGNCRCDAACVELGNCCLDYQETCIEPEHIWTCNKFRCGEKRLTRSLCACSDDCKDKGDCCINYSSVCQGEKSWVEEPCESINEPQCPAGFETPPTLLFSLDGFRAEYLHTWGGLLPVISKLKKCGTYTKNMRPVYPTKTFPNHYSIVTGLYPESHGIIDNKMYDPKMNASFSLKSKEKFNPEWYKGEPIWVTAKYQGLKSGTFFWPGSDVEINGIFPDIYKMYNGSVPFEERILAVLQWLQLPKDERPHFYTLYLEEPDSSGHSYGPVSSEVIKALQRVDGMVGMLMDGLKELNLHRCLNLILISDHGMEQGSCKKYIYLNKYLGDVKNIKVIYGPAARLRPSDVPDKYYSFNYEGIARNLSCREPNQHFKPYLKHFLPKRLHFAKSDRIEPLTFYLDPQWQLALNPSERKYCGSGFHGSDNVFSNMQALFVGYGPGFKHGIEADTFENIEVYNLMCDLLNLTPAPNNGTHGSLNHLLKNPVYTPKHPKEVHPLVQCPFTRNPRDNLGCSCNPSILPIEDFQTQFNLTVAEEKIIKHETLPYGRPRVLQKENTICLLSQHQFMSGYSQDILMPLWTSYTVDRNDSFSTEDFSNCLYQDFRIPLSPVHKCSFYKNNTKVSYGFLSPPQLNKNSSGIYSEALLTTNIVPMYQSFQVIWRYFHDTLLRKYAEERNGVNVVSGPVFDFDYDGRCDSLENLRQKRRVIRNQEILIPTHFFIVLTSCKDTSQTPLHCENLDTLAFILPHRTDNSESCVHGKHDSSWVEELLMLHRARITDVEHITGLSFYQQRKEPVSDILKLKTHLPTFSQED

Mouse ENPP1 [4] = target: T1, Mouse ENPP1; test: In vitro ENPP1 activity assay with cGAMP as substrate; format: biochemical; conditions: Ki at pH 7.4

Structure (SMILES): Nc1nc2c(ncn2[C@@H]2O[C@@H]3COP(=O)(O)O[C@H]4[C@@H](O)[C@H](n5cnc6c(N)ncnc65)O[C@@H]4COP(=O)(O)O[C@@H]2[C@@H]3O)c(=O)[nH]1 [cGAMP, 2’,3’-cyclic GMP-AMP]
t1/2 of cGAMP [1]: 16 min
t1/2 of cGAMP [2]: 30 to 60 min
Km (Mouse ENPP1 [3]): 240 µM

Structure (SMILES): COc1cc2ncnc(N3CCC(CCP(=O)(O)O)CC3)c2cc1OC [compound 15]
hERG inhibition (hERG channel): no inhibition

effect on cGAMP degradation (ENPP1 in mouse plasma): abrogated cGAMP degradation
effect on cGAMP degradation (ENPP1 in human plasma): abrogated cGAMP degradation
Structure (SMILES): O=C(O)CN(CCN(CC(=O)O)CC(=O)O)CC(=O)O [EDTA]

Structure (SMILES): COc1cc2nccc(N3CCC(CCP(=O)(O)O)CC3)c2cc1OC [compound 46]
loss in potency compared to compound 15 (Mouse ENPP1 [4]): 3 fold

Structure (SMILES): COc1ccc2ncnc(N3CCC(CCP(=O)(O)O)CC3)c2c1 [compound 25]
loss in potency compared to compound 15 (Mouse ENPP1 [4]): 100 fold
